“Also recorded” adds a separate entry of the source.
Columns and labels:
[1] = Cytotoxicity by MTT assay in RAW 264.7 macrophages; assay type: cell-based, mouse; settings: mouse, 72 h of treatment
Description: (§1) The IC50 values for the inhibition of NO production were determined in LPS-treated RAW 264.7 cells in comparison to cells treated with the vehicle (Carbowax 400) only (Table 3, Figure S1). To verify that the anti-inflammatory activity observed was not due to cytotoxic effect, the potential cytotoxicity of 1–6, 8, 10 and 11 was evaluated using the MTT assay following 24, 48 and 72 h of treatment in RAW 264.7 macrophages (Table 3, Figure S2).
(§2) Mouse macrophage cell line RAW 264.7 was cultured in DMEM medium (cat. # 21885-025, Gibco, Thermo Fisher Scientific, Waltham, MA, USA) supplemented with 10% heat inactivated fetal bovine serum (cat. # 10270-106, Gibco, Thermo Fisher Scientific, Waltham, MA, USA) and 1% penicillin-streptomycin (cat. # 15070-063, Gibco, Thermo Fisher Scientific, Waltham, MA, USA). Cells were cultured in 37 °C and 5% CO2. Each compound was diluted in Carbowax^TM 400 + 10% ethanol (cat. # 1.00983, Merck, Darmstadt, Germany), used also as control solvent. Final concentration in culture was 0.1% v/v carbowax and 0.01% v/v ethanol. RAW 264.7 macrophages were activated using 100 ng/mL lipopolysaccharide (LPS) (L2630, Merck, Darmstadt, Germany). In IC50 determination experiments, macrophages were pre-treated for 1 h with the respective compound prior to LPS stimulation.
(§3) 3.5 × 10^3 RAW 264.7 mouse macrophages were seeded in 96-well plate and cultured over night. Cells were subsequently treated with the respective compound concentration and incubated for 24, 48 and 72 h. Number of cells was measured prior to treatment and used as normalisation control. Thiazolyl Blue Tetrazolium Bromide (MTT) (A2231.001, Applichem GmbH, Darmstadt, Germany) was added to the cells in a final concentration of 0.5 mg/mL and then cells were incubated at 37 °C and 5% CO2 for 4 h. The supernatant was discarded and cells were lysed with 2-propanol (33539, Honeywell, Charlotte, NC, USA) with 0.4% HCl (30721, Merck, Darmstadt, Germany). The absorbance of each sample was measured in an automated microplate reader (Infinite 200 PRO, Tecan, Männedorf, Switzerland) at 600 nm. The average OD of each treated sample was normalized to the OD of the control sample and statistical analysis was performed using Graphpad Prism 7.0 (GraphPad Software, San Diego, CA, USA).

[2] = system: RAW 264.7 macrophages; test: Cytotoxicity by MTT assay in RAW 264.7 macrophages; assay type: cell-based, mouse; settings: for concentration above which cytotoxicity was observed: 72 h following treatment
Description: as §1, §2, §3

[3] = system: NO production in LPS-treated RAW 264.7 cells; test: Inhibition of NO production (Griess reaction) in LPS-treated RAW 264.7 macrophages; assay type: cell-based, mouse; settings: for IC50: Mus musculus, RAW264.7, LPS (100 ng/mL, 48 h)-treated RAW 264.7 cells, 1 h pre-treatment, Griess reaction, vs vehicle Carbowax 400; for anti-inflammatory activity (inhibition of NO production), in words: TLR4 (LPS) stimulated macrophages
Description: as §1, §2
30 × 10^4 RAW 264.7 mouse macrophages were plated in 24-well plates over-night with 0.5 mL complete medium. Cells were pretreated for 1 h with the respected compound concentration and then stimulated with 100 ng/mL LPS (L2630, Merck, Darmstadt, Germany) for 48 h. The amount of nitrite, an oxidative product of NO, was measured in culture supernatant of each sample using the Griess reaction. 100 μL of supernatant was mixed with 100 μL of sulfanilamide solution (1% sulfanilamide in 5% H3PO4) and incubated for 5 min at room temperature. Then, 100 μL of NED solution (0.1% N-1-napthylethylenediamine dihydrochlorite in H2O) was added and the absorbance was measured in an automated microplate reader (Infinite 200 PRO, Tecan, Männedorf, Switzerland) at 540 nm. Nitrite concentration was calculated using a sodium nitrite standard curve. All incubations were performed in the dark.

[4] = Stability of isolated metabolites (observation); assay type: physicochemical; settings: reason why bioactivity was not evaluated

SMILES | IC50 [3] | stability of the metabolite, in words [4] | IC50 at 72 h [1] | concentration above which cytotoxicity was observed [2] | cytotoxicity, in words [2] | anti-inflammatory activity (inhibition of NO production), in words [3] | concentration above which significant cytotoxicity was observed [2] | IC50 [1]
CC[C@@H]1O[C@@H]2C[C@@H]3O[C@@H]3C[C@H](C=C=CBr)O[C@@H]2C[C@H]1Br (relative stereo) [Compound 2, Thuwalallene B] | 13.2 ± 0.57 µM |  | > 31.2 µM | > 31.25 µM |  |  |  | 
CC[C@@H]1O[C@@H]2C/C=C\C[C@H](C=C=CBr)O[C@@H]2C[C@H]1Br (relative stereo) [Compound 3, Thuwalallene C] | 4.18 ± 0.48 µM |  | > 15.6 µM | higher than 15.62 μM |  |  |  | 
C#C/C=C\C[C@@H]1O[C@@H]2C[C@@H](Br)[C@H](CC)O[C@@H]2C[C@@H]1Br (relative stereo) [Compound 4, Thuwalenyne A] | > 62.5 µM |  | > 62.5 µM |  | did not exhibit anti-inflammatory activity or cytotoxicity | did not exhibit any activity; also recorded: did not exhibit anti-inflammatory activity |  | 
CCC1OC2CC3OC3CC(C=C=CBr)OC2CC1Br (centres unmarked) [Compound 1, Thuwalallene A] | 26 ± 3.73 µM |  | > 15.6 µM | higher than 15.62 μM |  |  |  | 
CC(C)(O)[C@H]1CC[C@](C)([C@@H](O)CC[C@](C)(O)[C@H]2CC[C@H]3O[C@@H]([C@]4(C)CC[C@@H](Br)C(C)(C)O4)CC[C@]3(C)O2)O1 [Compound 10, thyrsiferol] |  |  | > 0.1 µM |  | without significant cytotoxicity | IC50 values in the low nM scale | above 100 nM | 
CC(=O)OC(C)(C)C1CCC(C)(C(O)CCC(C)(O)C2CCC3OC(C4(C)CCC(Br)C(C)(C)O4)CCC3(C)O2)O1 (centres unmarked) [Compound 11, 23-acetylthyrsiferol] | 0.00263 µM |  |  |  | without significant cytotoxicity | IC50 values in the low nM scale | above 10 nM | > 0.01 µM

Now from value to compound, other results behind:

IC50 [3] | stability of the metabolite, in words [4] | SMILES | IC50 at 72 h [1] | concentration above which cytotoxicity was observed [2] | cytotoxicity, in words [2] | anti-inflammatory activity (inhibition of NO production), in words [3] | concentration above which significant cytotoxicity was observed [2] | IC50 [1]
37.4 ± 2.51 µM |  | C#C/C=C\CC(Br)[C@H]1C[C@H]2O[C@@H](CC)[C@H](Br)C[C@H]2O1 (relative stereo) [Compound 6, Thuwalenyne B] | > 15.6 µM | higher than 15.62 μM |  |  |  | 
 | proven to be unstable | C#C/C=C\C/C=C\C[C@H]1O[C@@H](CC)[C@H](Br)C[C@H]1O (relative stereo) [Compound 7, Thuwalenyne C] |  |  |  |  |  | 
12.4 ± 1.04 µM |  | CCC1OC2CC(C(O)CC(Cl)C=C=CBr)OC2CC1Br (centres unmarked) [Compound 5, Thuwalallene D] | > 15.6 µM | higher than 15.62 μM |  |  |  | 
3.98 ± 0.6 µM |  | CCC(Br)C1CC2OC(C=C=CBr)CC=CCC2O1 (centres unmarked) [Compound 8, Thuwalallene E] | > 7.81 µM | ≥ 7.81 µM |  |  |  | 
